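Cultured in 96-well plates, cells were exposed to test compound for 48 hours across five concentrations. GI50: concentration for 50% inhibition of growth. TGI marks complete inhibition of growth.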
Legend:
Test in all cases: NCI anticancer screen, dose series, 48 h; in the data active = GI50 below about 0.43 µM; inactive = the rest
NCI-H460 lung = system: NCI-H460 lung
HCT-15 colon = system: HCT-15 colon
M14 melanoma = system: M14 melanoma
NCI-H226 lung = system: NCI-H226 lung
MDA-MB-435 = system: MDA-MB-435
U251 CNS = system: U251 CNS
HL-60(TB) leukemia = system: HL-60(TB) leukemia
A549 NSCLC = system: A549 NSCLC
HS 578T breast = system: HS 578T breast
SW-620 colon = system: SW-620 colon
A498 renal = system: A498 renal
PC-3 prostate = system: PC-3 prostate
DU-145 prostate = system: DU-145 prostate
OVCAR-4 ovarian = system: OVCAR-4 ovarian
K-562 leukemia = system: K-562 leukemia
IGROV1 ovarian = system: IGROV1 ovarian
HOP-62 NSCLC = system: HOP-62 NSCLC
SF-539 CNS = system: SF-539 CNS
COLO 205 colon = system: COLO 205 colon
SNB-19 CNS = system: SNB-19 CNS
T-47D breast = system: T-47D breast
SR leukemia = system: SR leukemia
RPMI-8226 leukemia = system: RPMI-8226 leukemia
786-0 renal = system: 786-0 renal
MCF7 breast = system: MCF7 breast
CCRF-CEM leukemia = system: CCRF-CEM leukemia
UACC-62 melanoma = system: UACC-62 melanoma
ACHN renal = system: ACHN renal
EKVX NSCLC = system: EKVX NSCLC
SK-MEL-2 melanoma = system: SK-MEL-2 melanoma
SK-MEL-28 melanoma = system: SK-MEL-28 melanoma
SK-OV-3 ovarian = system: SK-OV-3 ovarian
MOLT-4 leukemia = system: MOLT-4 leukemia
CAKI-1 renal = system: CAKI-1 renal
UO-31 renal = system: UO-31 renal
OVCAR-5 ovarian = system: OVCAR-5 ovarian
SN12C renal = system: SN12C renal
NCI-H522 lung = system: NCI-H522 lung
SK-MEL-5 melanoma = system: SK-MEL-5 melanoma
OVCAR-8 ovarian = system: OVCAR-8 ovarian
HCC-2998 colon = system: HCC-2998 colon
UACC-257 melanoma = system: UACC-257 melanoma
KM12 colon = system: KM12 colon
SF-268 CNS = system: SF-268 CNS
NCI-H23 lung = system: NCI-H23 lung
HCT-116 colon = system: HCT-116 colon
NCI/ADR-RES ovarian = system: NCI/ADR-RES ovarian
BT-549 breast = system: BT-549 breast
HOP-92 NSCLC = system: HOP-92 NSCLC
HT29 colon = system: HT29 colon
RXF 393 renal = system: RXF 393 renal
MDA-MB-231 breast = system: MDA-MB-231 breast

Nc1ccc(-c2nnc(SCc3ccc(O)c4ncccc34)n2-c2ccccc2)cc1
active: GI50 (NCI-H460 lung) 19 nM | GI50 (HCT-15 colon) 49.8 nM | GI50 (M14 melanoma) 40.2 nM | GI50 (MDA-MB-435) 32.1 nM | GI50 (U251 CNS) 25.4 nM | GI50 (HL-60(TB) leukemia) 40.5 nM | GI50 (A549 NSCLC) 40.3 nM | GI50 (HS 578T breast) 47.8 nM | GI50 (SW-620 colon) 45.4 nM | GI50 (PC-3 prostate) 17 nM | GI50 (DU-145 prostate) 33.9 nM | GI50 (OVCAR-4 ovarian) 68.8 nM | GI50 (K-562 leukemia) 15.2 nM | GI50 (IGROV1 ovarian) 49.7 nM | GI50 (HOP-62 NSCLC) 66.1 nM | GI50 (SF-539 CNS) 48 nM | GI50 (SNB-19 CNS) 32.3 nM | GI50 (T-47D breast) 73.5 nM | GI50 (SR leukemia) 44.1 nM | GI50 (RPMI-8226 leukemia) 24.4 nM | GI50 (786-0 renal) 238 nM | GI50 (MCF7 breast) 28.7 nM | GI50 (CCRF-CEM leukemia) 36.8 nM | GI50 (UACC-62 melanoma) 65 nM | GI50 (ACHN renal) 63.9 nM | GI50 (EKVX NSCLC) 415 nM | GI50 (SK-MEL-2 melanoma) 64.4 nM | GI50 (SK-MEL-28 melanoma) 72.4 nM | GI50 (SK-OV-3 ovarian) 118 nM | GI50 (MOLT-4 leukemia) 48.5 nM | GI50 (CAKI-1 renal) 62.7 nM | GI50 (UO-31 renal) 140 nM | GI50 (OVCAR-5 ovarian) 290 nM | GI50 (SN12C renal) 31.8 nM | GI50 (NCI-H522 lung) 26.8 nM | GI50 (SK-MEL-5 melanoma) 25.2 nM | GI50 (OVCAR-8 ovarian) 38.7 nM | GI50 (HCC-2998 colon) 58.3 nM | GI50 (UACC-257 melanoma) 62.2 nM | GI50 (KM12 colon) 50.4 nM | GI50 (SF-268 CNS) 45.2 nM | GI50 (NCI-H23 lung) 32.2 nM | GI50 (HCT-116 colon) < 17.2 nM | GI50 (BT-549 breast) 29.1 nM | GI50 (RXF 393 renal) 81.6 nM | GI50 (MDA-MB-231 breast) 69.5 nM
80.4 nM: TGI (SK-MEL-5 melanoma)
4300 nM: TGI (M14 melanoma)
3420 nM: TGI (COLO 205 colon)
20.3 nM: TGI (HOP-92 NSCLC)
98800 nM: TGI (MDA-MB-231 breast)
13200 nM: TGI (UACC-62 melanoma)
911 nM: TGI (SK-OV-3 ovarian)
> 24600 nM: TGI (A498 renal)
> 37400 nM: TGI (HCT-116 colon)
6810 nM: TGI (NCI-H522 lung)
> 33000 nM: TGI (NCI-H460 lung)
inactive: GI50 (NCI-H226 lung) 1150 nM | GI50 (A498 renal) 933 nM | GI50 (COLO 205 colon) 1010 nM | GI50 (NCI/ADR-RES ovarian) 2290 nM | GI50 (HT29 colon) 890 nM
4840 nM: TGI (SK-MEL-2 melanoma)
> 100000 nM: TGI (HCT-15 colon) | TGI (NCI-H226 lung) | TGI (MDA-MB-435) | TGI (U251 CNS) | TGI (HL-60(TB) leukemia) | TGI (A549 NSCLC) | TGI (HS 578T breast) | TGI (SW-620 colon) | TGI (PC-3 prostate) | TGI (DU-145 prostate) | TGI (OVCAR-4 ovarian) | TGI (K-562 leukemia) | TGI (IGROV1 ovarian) | TGI (HOP-62 NSCLC) | TGI (SF-539 CNS) | TGI (SNB-19 CNS) | TGI (T-47D breast) | TGI (SR leukemia) | TGI (RPMI-8226 leukemia) | TGI (786-0 renal) | TGI (MCF7 breast) | TGI (CCRF-CEM leukemia) | TGI (EKVX NSCLC) | TGI (SK-MEL-28 melanoma) | TGI (MOLT-4 leukemia) | TGI (CAKI-1 renal) | TGI (UO-31 renal) | TGI (OVCAR-5 ovarian) | TGI (SN12C renal) | TGI (OVCAR-8 ovarian) | TGI (HCC-2998 colon) | TGI (KM12 colon) | TGI (SF-268 CNS) | TGI (NCI-H23 lung) | TGI (NCI/ADR-RES ovarian) | TGI (BT-549 breast) | TGI (HT29 colon) | TGI (RXF 393 renal)
